In patent US11524993B2 (priority 2015, dated 2022):

Assays:
A/WSN/33 H1 virus = tested on: A/WSN/33 H1 virus; set-up: species or system mice; details: mouse, in vivo
[1] = tested on: B/FLA/06 yamagata lineage virus; set-up: species or system mice; details: mouse, in vivo

`CCOC(=O)C1=C[C@@H](OC(CC)CC)[C@H](NC(C)=O)[C@@H](N)C1` [oseltamivir] was tested, and the “oxygen saturation level (pulse oximetry) Day 6, A/WSN/33” value (A/WSN/33 H1 virus) was “reduced oxygen saturation at similar levels as those treated with an irrelevant control mAb”, the “protection (survival), influenza A infection model” value (A/WSN/33 H1 virus) was “no protection” and the “oxygen saturation level (pulse oximetry) Day 6, B/FLA/06, avg.” value [1] was 86%. The “survival rates, influenza B infection” value [1] was 90-100%.
